Tested on: hepatocytes
Assay: Seq-Well scRNA-Seq of hepatocytes after APAP overdose (signature scores, DEG vs untreated)
Assay type: in vivo, mouse
Conditions: A6 vs UT

In the case of `CC(=O)Nc1ccc(O)cc1` [APAP, acetaminophen], the “Plbd2 pct.1” value is reported as 0.344, the “Plcxd2 A6logFC” value is reported as −0.2752 and the “Plcxd2 avg_logFC” value is reported as −0.2752. For the same compound, the “Plcxd2 pct.1” value was 0.162, the “Plec avg_logFC” value was 0.4675 and the “Plec pct.1” value was 0.422. The “Plek avg_logFC” value was 0.3089, the “Plek pct.1” value was 0.11 and the “Plin2 avg_logFC” value was 1.461. For the same compound, the “Plin5 avg_logFC” value was 0.2963, the “Plin5 pct.1” value was 0.456 and the “Plscr1 avg_logFC” value was 0.4445. The “Pmpcb avg_logFC” value was −0.2636, the “Pmpcb pct.1” value was 0.356 and the “Pnkd A6logFC” value was −0.2928. For the same compound, the “Pon1 avg_logFC” value was −0.6858, the “Ppan avg_logFC” value was 0.2724 and the “Ppan pct.1” value was 0.255. For the same compound, the “Ppara avg_logFC” value was −0.2871, the “Ppara pct.1” value was 0.234 and the “Ppib avg_logFC” value was −0.5897. For the same compound, the “Ppip5k2 A6logFC” value was 0.3209, the “Ppip5k2 avg_logFC” value was 0.3209 and the “Ppip5k2 pct.1” value was 0.344. The “Ppl avg_logFC” value was 0.8798, the “Ppm1g A6logFC” value was 0.2522 and the “Ppm1g avg_logFC” value was 0.2522. The “Ppm1g pct.1” value was 0.358, the “Ppm1k avg_logFC” value was −0.5584 and the “Ppp1r3b avg_logFC” value was −0.4027. For the same compound, the “Ppp1r3b pct.1” value was 0.098, the “Ppp2r5a avg_logFC” value was −0.2605 and the “Ppp2r5a pct.1” value was 0.43. For the same compound, the “Prdx1 avg_logFC” value was −0.5292, the “Prdx4 avg_logFC” value was −0.4176 and the “Prdx4 pct.1” value was 0.372. For the same compound, the “Proc A6logFC” value was −0.2707, the “Prpf19 A6logFC” value was 0.2588 and the “Prpf19 avg_logFC” value was 0.2588. The “Prpf19 pct.1” value was 0.432, the “Prrc2c avg_logFC” value was 0.4393 and the “Prrc2c pct.1” value was 0.415. For the same compound, the “Psap A6logFC” value was 0.2578, the “Psap avg_logFC” value was 0.2578 and the “Psap pct.1” value was 0.556. The “Psat1 avg_logFC” value was 0.3012, the “Psen2 avg_logFC” value was −0.9474 and the “Psma1 A6logFC” value was −0.2567. The “Psma1 avg_logFC” value was −0.2567, the “Psma1 pct.1” value was 0.353 and the “Psma6 A6logFC” value was −0.3035. For the same compound, the “Psma6 avg_logFC” value was −0.3035, the “Psma6 pct.1” value was 0.501 and the “Psme1 avg_logFC” value was −0.394. For the same compound, the “Psme1 pct.1” value was 0.26, the “Ptpmt1 A6logFC” value was −0.256 and the “Ptpmt1 avg_logFC” value was −0.256. The “Ptpmt1 pct.1” value was 0.372, the “Ptpn1 avg_logFC” value was 0.4163 and the “Ptpn1 pct.1” value was 0.353. For the same compound, the “Ptpn11 A6logFC” value was 0.2778, the “Ptpn11 avg_logFC” value was 0.2778 and the “Ptpn11 pct.1” value was 0.37. For the same compound, the “Ptprc avg_logFC” value was 0.4165, the “Pvrl2 A6logFC” value was −0.2613 and the “Qdpr avg_logFC” value was −0.5236. For the same compound, the “Qdpr pct.1” value was 0.606, the “Rab6a A6logFC” value was 0.3234 and the “Rabac1 A6logFC” value was −0.266. The “Rabac1 avg_logFC” value was −0.266, the “Rabac1 pct.1” value was 0.346 and the “Rad54l2 avg_logFC” value was 0.3887. The “Rad54l2 pct.1” value was 0.325, the “Ranbp2 avg_logFC” value was 0.5985 and the “Rangap1 A6logFC” value was 0.2962. For the same compound, the “Rangap1 avg_logFC” value was 0.2962, the “Rangap1 pct.1” value was 0.387 and the “Rap1b A6logFC” value was 0.3408. For the same compound, the “Rap1b avg_logFC” value was 0.3408, the “Rap1b pct.1” value was 0.406 and the “Rarres2 avg_logFC” value was −0.5522. For the same compound, the “Rassf3 A6logFC” value was 0.2912, the “Rassf3 avg_logFC” value was 0.2912 and the “Rassf3 pct.1” value was 0.422. The “Rbm25 A6logFC” value was 0.4215, the “Rbm39 A6logFC” value was 0.2657 and the “Rbm39 avg_logFC” value was 0.2657. For the same compound, the “Rbm39 pct.1” value was 0.506, the “Rcan1 avg_logFC” value was 0.7073 and the “Rdh7 avg_logFC” value was −0.4186. For the same compound, the “Reep3 A6logFC” value was 0.409, the “Reep3 avg_logFC” value was 0.409 and the “Reep3 pct.1” value was 0.535. For the same compound, the “Rell1 avg_logFC” value was 0.5912, the “Retnlg avg_logFC” value was 0.3751 and the “Retsat avg_logFC” value was 0.4911. For the same compound, the “Rgs2 avg_logFC” value was 0.3957, the “Rgs2 pct.1” value was 0.138 and the “Riok3 A6logFC” value was 0.2916. For the same compound, the “Riok3 avg_logFC” value was 0.2916, the “Riok3 pct.1” value was 0.43 and the “Rmnd5a A6logFC” value was 0.3189. The “Rmnd5a avg_logFC” value was 0.3189, the “Rmnd5a pct.1” value was 0.47 and the “Rnase4 avg_logFC” value was −1.049. The “Rnaseh2c A6logFC” value was −0.3257, the “Rnd3 avg_logFC” value was 0.3655 and the “Rnd3 pct.1” value was 0.284. The “Rnf144a avg_logFC” value was 0.313, the “Rnf144a pct.1” value was 0.177 and the “Rnf169 A6logFC” value was 0.334. The “Rnf169 avg_logFC” value was 0.334, the “Rnf169 pct.1” value was 0.315 and the “Rock1 A6logFC” value was 0.2608. For the same compound, the “Rock1 avg_logFC” value was 0.2608, the “Rock1 pct.1” value was 0.413 and the “Rock2 avg_logFC” value was 0.5941. For the same compound, the “Romo1 A6logFC” value was −0.3359, the “Rora avg_logFC” value was 0.6444 and the “Rpl13a avg_logFC” value was −0.3815. For the same compound, the “Rpl13a pct.1” value was 0.704, the “Rpl13 avg_logFC” value was −0.2988 and the “Rpl13 pct.1” value was 0.294. For the same compound, the “Rpl14 A6logFC” value was −0.2776, the “Rpl14 avg_logFC” value was −0.2776 and the “Rpl14 pct.1” value was 0.372. For the same compound, the “Rpl34 A6logFC” value was −0.2976, the “Rpl36al avg_logFC” value was −0.4755 and the “Rpl36al pct.1” value was 0.284. The “Rplp1 avg_logFC” value was −0.5047, the “Rplp1 pct.1” value was 0.449 and the “Rps15 avg_logFC” value was −0.4552. The “Rps15 pct.1” value was 0.301, the “Rps18 avg_logFC” value was −0.4885 and the “Rps18 pct.1” value was 0.337. The “Rps24 A6logFC” value was −0.2625, the “Rps24 avg_logFC” value was −0.2625 and the “Rps24 pct.1” value was 0.453. The “Rps27l avg_logFC” value was −0.8659, the “Rraga A6logFC” value was 0.2626 and the “Rraga avg_logFC” value was 0.2626. For the same compound, the “Rraga pct.1” value was 0.337, the “Rsl1d1 A6logFC” value was 0.3461 and the “S100a8 avg_logFC” value was 1.128. The “S100a9 avg_logFC” value was 1.343, the “Saa4 avg_logFC” value was −0.571 and the “Sat1 avg_logFC” value was 0.6887. The “Sc5d avg_logFC” value was −0.5009, the “Sc5d pct.1” value was 0.58 and the “Scaf11 A6logFC” value was 0.3598. For the same compound, the “Sco2 avg_logFC” value was −0.2605, the “Sco2 pct.1” value was 0.353 and the “Scp2 avg_logFC” value was −0.5191. For the same compound, the “Sdad1 avg_logFC” value was 0.3124, the “Sdad1 pct.1” value was 0.289 and the “Sdc3 pct.1” value was 0.103. For the same compound, the “Sdc4 avg_logFC” value was 0.6196, the “Sdr9c7 A6logFC” value was −0.26 and the “Sec61b A6logFC” value was −0.2903. For the same compound, the “Sec1412 avg_logFC” value was −0.7897, the “Selenbp1 avg_logFC” value was −0.4937 and the “Selenbp1 pct.1” value was 0.401. For the same compound, the “Selenbp2 avg_logFC” value was −1.009, the “Selo A6logFC” value was −0.2574 and the “Selo avg_logFC” value was −0.2574. For the same compound, the “Selo pct.1” value was 0.217, the “Sema4g A6logFC” value was −0.2505 and the “Sema4g avg_logFC” value was −0.2505. The “Sema4g pct.1” value was 0.27, the “Serbp1 A6logFC” value was 0.3227 and the “Serbp1 avg_logFC” value was 0.3227. For the same compound, the “Serbp1 pct.1” value was 0.659, the “Serpina1a avg_logFC” value was −0.3785 and the “Serpina1e avg_logFC” value was −0.2684. For the same compound, the “Serpina1e pct.1” value was 0.99, the “Serpina3m avg_logFC” value was 0.9674 and the “Serpina3n avg_logFC” value was 0.8483. For the same compound, the “Serpina12 avg_logFC” value was −0.4534, the “Serpina12 pct.1” value was 0.232 and the “Serpina1d avg_logFC” value was −0.289. The “Serpina1d pct.1” value was 0.926, the “Sf3b1 A6logFC” value was 0.2888 and the “Sf3b1 avg_logFC” value was 0.2888. For the same compound, the “Sf3b1 pct.1” value was 0.508, the “Sgk1 A6logFC” value was 0.2843 and the “Shmt1 avg_logFC” value was −0.3932. The “Shmt1 pct.1” value was 0.339, the “Sigmar1 A6logFC” value was −0.3055 and the “Slc4a4 avg_logFC” value was 0.4203. For the same compound, the “Slc4a4 pct.1” value was 0.513, the “Slc10a2 avg_logFC” value was 0.299 and the “Slc10a2 pct.1” value was 0.255. For the same compound, the “Slc16a2 A6logFC” value was −0.252, the “Slc16a2 avg_logFC” value was −0.252 and the “Slc16a2 pct.1” value was 0.255. For the same compound, the “Slc16a6 avg_logFC” value was 0.9114, the “Slc16a10 A6logFC” value was −0.2548 and the “Slc16a10 avg_logFC” value was −0.2548. For the same compound, the “Slc16a10 pct.1” value was 0.196, the “Slc20a1 avg_logFC” value was 0.3572 and the “Slc20a1 pct.1” value was 0.284. The “Slc22a1 avg_logFC” value was −0.7979.

— patent US20230053540A1, “TREATMENT OF LIVER INJURY” (Massachusetts Institute of Technology, priority 2019, published 2023)
